We go through one substance from patent US20130243700A1, “Proteomic Antisense Molecular Shield and Targeting” (priority 2005, published 2013).

Experiment [1] deals with blood vessel wall molecules. Put plainly: incubation of damaged blood vessels with biotinylated bioconjugate. Type of experiment: binding. The settings on record: biotinylated form. Here is the method: To further assess the ECM-binding properties FNPEG-5K, damaged blood vessels were incubated with a biotinylated form of bioconjugate.
The subject of experiment [2] is platelets. Put plainly: platelet adhesion to FN or FNPEG-5K immobilized on tissue culture plates. It counts as cell-based, human. The note with it: protein immobilized onto tissue culture plates; fluorescently labeled platelets. The procedure: As mentioned previously, FN itself has the ability to mediate adhesion of platelets. To test whether this binding potential was eliminated following mPEG-aldehyde derivatization, FN and FNPEG-5K were immobilized onto tissue culture plates. Fluorescently labeled human […] and adhesion was assessed.

Experiment [3] addresses type I collagen (Homo sapiens, UniProt P02452+P08123). Put plainly: platelet adhesion to type I collagen adsorbed to tissue culture plates after incubation with FN or FNPEG-5K. It counts as cell-based. The note with it: incubated with the protein and washed. Here is the method: (§1) Since the modified FNPEG-5K retained the collagen binding properties of native FN while lacking its intrinsic platelet activating properties, the ability of this reagent to block platelet adherence to collagen was investigated. To test this, type I collagen was adsorbed to tissue culture plates. Native FN or FNPEG-5K were then incubated with the immobilized collagen and washed. Platelet adhesion was then assessed.

For experiment [4], the system named is vascular wall components. Nature of the experiment: platelet adhesion to damaged blood vessels. It counts as cell-based. The procedure:
as §1

Experiment [5] addresses plate-immobilized collagen (Homo sapiens, UniProt P02452+P08123). Nature of the experiment: collagen binding study with iodinated FN and FNPEG-5K. The note with it: iodinated protein; compared with native FN. Here is the method: Purified FN was then reabsorbed to gelatin agarose. Sodium cyanoborohydride and mPEG-aldehyde (MW 5,000) were added to the resin-bound FN. […] Following this reaction and subsequent washing away of the reactants, the protein was eluted from the gelatin agarose matrix. Using this reaction sequence, the collagen binding sites within FN were not modified by the pegylation. […] To test whether the modified forms of FN retained the collagen-binding properties of native FN, binding studies using iodinated FN and FNPEG-5K were undertaken. […] Thus, the key collagen-binding properties of FN were not inhibited by this targeted modification approach.

type I collagen, sequence (P02452 162-1218 limits assumed): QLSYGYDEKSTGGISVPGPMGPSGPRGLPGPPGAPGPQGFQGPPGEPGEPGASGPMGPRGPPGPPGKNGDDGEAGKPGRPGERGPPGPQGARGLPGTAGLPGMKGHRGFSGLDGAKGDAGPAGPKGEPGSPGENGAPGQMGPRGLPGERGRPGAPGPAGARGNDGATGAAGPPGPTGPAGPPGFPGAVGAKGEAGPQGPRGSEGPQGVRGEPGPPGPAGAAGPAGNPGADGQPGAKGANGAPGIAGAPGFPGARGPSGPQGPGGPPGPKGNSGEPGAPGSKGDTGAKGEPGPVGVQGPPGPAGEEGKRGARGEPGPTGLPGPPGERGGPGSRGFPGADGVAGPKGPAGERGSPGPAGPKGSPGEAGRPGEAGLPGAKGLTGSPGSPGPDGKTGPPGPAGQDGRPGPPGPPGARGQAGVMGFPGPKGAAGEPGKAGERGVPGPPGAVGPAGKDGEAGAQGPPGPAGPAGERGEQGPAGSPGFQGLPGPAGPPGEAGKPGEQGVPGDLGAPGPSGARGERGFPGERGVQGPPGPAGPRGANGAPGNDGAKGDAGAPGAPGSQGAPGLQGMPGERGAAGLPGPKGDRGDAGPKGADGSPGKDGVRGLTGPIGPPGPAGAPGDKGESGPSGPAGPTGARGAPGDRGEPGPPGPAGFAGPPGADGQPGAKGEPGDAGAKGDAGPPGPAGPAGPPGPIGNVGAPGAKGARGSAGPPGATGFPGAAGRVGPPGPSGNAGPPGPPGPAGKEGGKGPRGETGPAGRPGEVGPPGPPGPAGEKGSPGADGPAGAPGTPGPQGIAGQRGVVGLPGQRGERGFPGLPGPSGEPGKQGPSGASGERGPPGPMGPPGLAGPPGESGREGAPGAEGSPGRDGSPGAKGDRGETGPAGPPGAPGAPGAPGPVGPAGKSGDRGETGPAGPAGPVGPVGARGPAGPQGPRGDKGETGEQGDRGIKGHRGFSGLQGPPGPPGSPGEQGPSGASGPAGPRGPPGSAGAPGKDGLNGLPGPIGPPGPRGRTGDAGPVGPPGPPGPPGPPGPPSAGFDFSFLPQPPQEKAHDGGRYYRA
type I collagen, sequence (P08123 80-1119 limits assumed): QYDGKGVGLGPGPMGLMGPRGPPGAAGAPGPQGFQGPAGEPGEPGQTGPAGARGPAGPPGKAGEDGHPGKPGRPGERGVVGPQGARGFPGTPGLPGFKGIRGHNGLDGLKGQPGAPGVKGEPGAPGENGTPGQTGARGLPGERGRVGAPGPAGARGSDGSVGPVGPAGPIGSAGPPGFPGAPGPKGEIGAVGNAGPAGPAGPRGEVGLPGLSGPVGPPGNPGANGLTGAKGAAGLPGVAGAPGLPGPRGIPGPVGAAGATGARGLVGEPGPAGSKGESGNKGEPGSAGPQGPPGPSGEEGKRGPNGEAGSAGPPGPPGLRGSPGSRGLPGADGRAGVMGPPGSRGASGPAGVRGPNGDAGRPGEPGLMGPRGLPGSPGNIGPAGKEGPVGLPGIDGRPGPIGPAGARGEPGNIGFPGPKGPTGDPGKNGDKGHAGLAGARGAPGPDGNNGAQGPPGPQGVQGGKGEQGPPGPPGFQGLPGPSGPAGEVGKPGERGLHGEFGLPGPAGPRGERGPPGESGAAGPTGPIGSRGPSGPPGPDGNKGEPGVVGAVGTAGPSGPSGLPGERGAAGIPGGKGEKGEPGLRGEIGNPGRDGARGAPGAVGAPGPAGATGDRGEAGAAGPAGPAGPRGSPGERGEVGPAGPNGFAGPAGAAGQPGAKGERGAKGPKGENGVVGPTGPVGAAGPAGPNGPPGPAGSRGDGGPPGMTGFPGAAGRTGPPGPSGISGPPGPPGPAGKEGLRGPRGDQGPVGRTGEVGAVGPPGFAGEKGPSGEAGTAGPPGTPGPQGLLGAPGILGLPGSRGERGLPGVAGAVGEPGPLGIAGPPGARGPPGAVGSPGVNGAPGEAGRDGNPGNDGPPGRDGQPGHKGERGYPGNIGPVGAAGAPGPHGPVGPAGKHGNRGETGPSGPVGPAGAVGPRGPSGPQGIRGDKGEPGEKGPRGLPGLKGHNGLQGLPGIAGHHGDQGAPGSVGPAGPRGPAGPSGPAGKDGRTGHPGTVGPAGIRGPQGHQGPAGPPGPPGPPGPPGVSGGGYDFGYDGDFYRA
plate-immobilized collagen, sequence (P02452 162-1218 limits assumed): as the sequence (P02452 162-1218 limits assumed) above
plate-immobilized collagen, sequence (P08123 80-1119 limits assumed): as the sequence (P08123 80-1119 limits assumed) above

Take “FNPEG-5K: human plasma fibronectin pegylated on lysine residues with mPEG-aldehyde (MW 5,000) by reductive amination while bound to gelatin agarose”: in experiment [1], the “coating of blood vessel wall molecules (ECM binding)” value is on record as “coats blood vessel wall molecules”. For the same substance, the “binding to platelets (platelet adhesion to immobilized protein)” value in experiment [2] is “markedly attenuated”. Besides, in experiment [3], the “inhibition of platelet binding to type I collagen” value is reported as “potently inhibited”. Besides, the “blocking of platelet adhesion to vascular wall components” value in experiment [4] is on record as “blocks platelet adhesion to vascular wall components”. Also, in experiment [5], the “binding to plate-immobilized collagen” value is “bound plate-immobilized collagen in a manner similar to native FN”.
